Test results as given in PubChem BioAssay (NCI).
“And” between values parts separate entries of the source, which are not always exact repeats. Equal values may be shown once.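 Briefly, cells in 96-well plates were exposed to five compound concentrations for 48 h, and endpoints were estimated by linear interpolation. GI50: concentration for 50% inhibition of growth. TGI: concentration producing complete growth inhibition.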

How the values were obtained:
Test in all cases: NCI anticancer screen, dose series, 48 h
K-562 leukemia = system: K-562 leukemia
KM12 colon = system: KM12 colon
SNB-75 CNS = system: SNB-75 CNS
IGROV1 ovarian = system: IGROV1 ovarian
SNB-19 CNS = system: SNB-19 CNS
A549 NSCLC = system: A549 NSCLC
OVCAR-5 ovarian = system: OVCAR-5 ovarian
MCF7 breast = system: MCF7 breast
RPMI-8226 leukemia = system: RPMI-8226 leukemia
SF-295 CNS = system: SF-295 CNS

SMILES	TGI (K-562 leukemia) [µM]	TGI (KM12 colon)	TGI (SNB-75 CNS)	TGI (IGROV1 ovarian)	TGI (SNB-19 CNS)	TGI (A549 NSCLC)	TGI (OVCAR-5 ovarian)	TGI (MCF7 breast)	TGI (RPMI-8226 leukemia)	TGI (SF-295 CNS)	GI50 (K-562 leukemia) [µM]	GI50 (KM12 colon)	GI50 (SNB-75 CNS)	GI50 (IGROV1 ovarian)	GI50 (SNB-19 CNS)	GI50 (A549 NSCLC)	GI50 (OVCAR-5 ovarian) [µM]	GI50 (MCF7 breast)	GI50 (RPMI-8226 leukemia)	GI50 (SF-295 CNS)
CCOC1OCCCC1Br (configuration not stated)	> 100	> 100 µM	> 100 µM	> 100 µM	> 100 µM	> 100 µM	> 100 µM	> 100 µM	> 100 µM	> 100 µM	–	–	–	–	–	–	–	–	–	–
COc1ccc(-c2ccc(/C=C/C(=O)NO)cc2)cc1	> 100	> 100 µM	5.06 µM	9.66 µM	11.4 µM	6.14 µM	17.7 µM	19.2 µM	> 100 µM	2.01 µM	2.39	1.11 µM	1.38 µM	0.768 µM	2.42 µM	0.317 µM	1.74	0.639 µM	0.697 µM	0.23 µM
CN(C)CCCNc1nn2c(=O)c3ccccc3nc2c2ccccc12	31.8	27.2 µM	51.1 µM	47.8 µM	43.9 µM	25.2 µM	34.3 µM	15.6 µM	33.7 µM	24.5 µM	9.94	11.2 µM	2.73 µM	6.19 µM	13.2 µM	5.64 µM	12.8	3.43 µM	11.9 µM	3.86 µM
C[C@]12O[C@H](C[C@]1(O)CO)n1c3ccccc3c3c4c(c5c6ccccc6n2c5c31)CNC4=O	> 100	1.4 µM and 0.982 µM	0.556 µM and 1.3 µM	3.67 µM and 4.9 µM	4.08 µM and 3.22 µM	> 6.09 µM and 3.5 µM	> 10 µM and 4.79 µM	3.41 µM and 1.92 µM	1.6 µM and 1.75 µM	2.45 µM and 2.02 µM	–	0.00535 µM and < 0.01 µM	0.0492 µM and 0.0852 µM	0.0514 µM and 0.111 µM	0.546 µM and 0.544 µM	0.176 µM and 0.191 µM	0.114	0.0774 µM and 0.0605 µM	0.134 µM and 0.215 µM	0.171 µM and 0.101 µM
Cc1ccc(Cl)cc1Nc1nc(C(F)(F)F)ccc1C(=O)Nc1cccc(C(F)(F)F)c1	> 100	12.8 µM	12.3 µM	13.4 µM	14.6 µM	11.7 µM	11.4 µM	9.5 µM	12.6 µM	18.4 µM	3.59	3.12 µM	3.11 µM	1.69 µM	3.59 µM	2.93 µM	2.59	2.49 µM	2.34 µM	3.65 µM
CCSc1oc(-c2ccccc2)nc1[P+](c1ccccc1)(c1ccccc1)c1ccccc1	3.45	1.09 µM	0.727 µM	1.53 µM	3.88 µM	4.71 µM	6.36 µM	1.28 µM	0.52 µM	0.739 µM	0.152	0.233 µM	0.177 µM	0.285 µM	0.293 µM	0.301 µM	0.416	0.246 µM	0.135 µM	0.241 µM
Oc1ccc2oc3ncc(Cl)c(-c4ccccc4)c3c2c1	> 100	> 100 µM	> 100 µM	> 100 µM	> 100 µM	> 100 µM	> 100 µM	> 100 µM	> 100 µM	> 100 µM	> 100	> 100 µM	> 100 µM	> 100 µM	> 100 µM	> 100 µM	> 100	> 100 µM	> 100 µM	> 100 µM
CC(C)C[C@H](NC(=O)[C@H](CCc1ccccc1)NC(=O)CN1CCOCC1)C(=O)N[C@@H](Cc1ccccc1)C(=O)N[C@@H](CC(C)C)C(=O)[C@@]1(C)CO1	> 100	0.0199 µM	0.0509 µM	–	> 100 µM	0.204 µM	0.112 µM	5.41 µM	–	0.0561 µM	0.0252	< 0.01 µM	0.018 µM	0.0324 µM	< 0.0164 µM	0.0203 µM	0.0255	< 0.01 µM	< 0.01 µM	< 0.01 µM
O=C(NCc1cccnc1)/C(=C\c1ccc(Br)cc1)S(=O)(=O)c1ccccc1	13	3.47 µM	2.34 µM	2.11 µM	2.83 µM	3.31 µM	2.33 µM	2.11 µM	2.43 µM	3.24 µM	0.423	1.53 µM	1.05 µM	0.636 µM	1.43 µM	1.48 µM	0.929	0.409 µM	0.408 µM	1.72 µM
COc1ccc(C(=O)c2cc(OC)c(OC)c(OC)c2)cc1OC(C)=O	> 100	> 100 µM	> 100 µM	> 100 µM	> 100 µM	> 100 µM	> 100 µM	> 100 µM	26.8 µM	> 100 µM	< 0.01	< 0.0133 µM	< 0.0145 µM	0.272 µM	0.0381 µM	0.115 µM	4.55	0.0346 µM	0.0324 µM	0.0796 µM
CC[C@@]1(O)C(=O)NCc2c1cc1n(c2=O)Cc2cc3ccccc3nc2-1	> 100	> 100 µM	> 28.5 µM	> 100 µM	> 100 µM	> 100 µM	> 100 µM	–	> 43.3 µM	13.2 µM	4.4	> 50.6 µM	4.22 µM	12.1 µM	1.92 µM	2.37 µM	15.1	0.823 µM	2.15 µM	0.575 µM
COc1cc(C)c(C(=O)O[C@H]2[C@H](O[C@H]3[C@@H](O)COC(O[C@H]4C[C@H]5[C@@H]6CC=C7C[C@@H](O)CC[C@]7(C)[C@H]6CC[C@]5(C)[C@H]4[C@H](C)C(=O)CCC(C)C)[C@@H]3OC(C)=O)OC[C@@H](O)[C@@H]2O)c(C)c1 (some centres not stated)	7.47	18.4 µM	7.71 µM	19.9 µM	4.93 µM	30.5 µM	18.5 µM	7.62 µM	< 0.01 µM	< 0.01 µM	< 0.01	0.153 µM	< 0.01 µM	0.247 µM	< 0.01 µM	< 0.01 µM	0.58	< 0.01 µM	< 0.01 µM	< 0.01 µM
C=C(C=O)C1CC(=O)C(C(=O)OC)[C@@H]2O[C@@](C)(CC2=O)C[C@@H]2OC(=O)[C@]3(O[C@@H]23)[C@@H](C(=O)OC)C1 (some centres not stated)	> 100	45 µM	> 100 µM	48.3 µM	> 100 µM	67.1 µM	51.2 µM	28 µM	21.8 µM	28.6 µM	20.1	19.2 µM	31 µM	4.56 µM	38.3 µM	29 µM	23.1	11.1 µM	4.16 µM	11.2 µM
CCN(CC)CCN1C(=O)c2c(c(C)c3c(oc4cc(O)ccc43)c2C)C1=O	> 100	3.74 µM	2.8 µM	3.17 µM	3.21 µM	4.68 µM	3.04 µM	3.32 µM	4.76 µM	2.98 µM	2.3	1.82 µM	1.44 µM	1.6 µM	1.68 µM	2.05 µM	1.66	1.65 µM	1.77 µM	1.56 µM
C/C(=C\c1ccc(Cl)cc1)C(C)(C)C(=O)O	> 100	> 100 µM	> 100 µM	> 100 µM	> 100 µM	> 100 µM	> 100 µM	> 100 µM	> 100 µM	> 100 µM	–	–	–	–	–	–	–	–	–	–
CN(C)C[C@H]1CC[C@@H](CN(C)C)C1=O	1.43	27.5 µM	> 28.7 µM	31.6 µM	> 50 µM	> 50 µM	16.3 µM	6.19 µM	> 12.9 µM	> 50 µM	–	–	–	–	–	–	–	–	1.17 µM	–
CC(=O)OCC1OC(OC2C(COC(C)=O)OC(OCCC[S-])C(OC(C)=O)C2OC(C)=O)C(OC(C)=O)C(OC(C)=O)C1OC(C)=O.[Au+].c1ccc(CN2[CH-]N(Cc3ccccc3)C(c3ccccc3)=C2c2ccccc2)cc1 (configuration not stated)	14.5	16.1 µM	17 µM	16 µM	15.2 µM	25 µM	27 µM	9.58 µM	11.1 µM	7.3 µM	3.27	3.8 µM	2.86 µM	3.06 µM	3.66 µM	4.29 µM	5.67	2.44 µM	2.78 µM	2.14 µM
COc1ccc(-c2ccc3c(NC(=O)C4CC4)n[nH]c3n2)cc1	> 25	> 25 µM	> 17.2 µM	> 25 µM	> 25 µM	> 25 µM	> 25 µM	> 25 µM	> 25 µM	> 25 µM	> 25	> 25 µM	5.1 µM	> 25 µM	15.9 µM	> 25 µM	> 25	> 25 µM	> 25 µM	> 25 µM
